# Test results from ChEMBL document CHEMBL1201862, “PubChem BioAssay data set” (2004).
# Active and inactive are the calls of the source.
# What was measured:
# [1] = biological target: T1, Carboxy-terminal domain RNA polymerase II polypeptide A small phosphatase 1 (Homo sapiens, UniProt Q9GZU7); assay: inhibitors of CTDSP1, concentration-response testing, biochemical assay, absorbance-based, actives from ultra-high-throughput screening (AID 540297); assay type: functional
# T1 sequence (Q9GZU7 whole entry): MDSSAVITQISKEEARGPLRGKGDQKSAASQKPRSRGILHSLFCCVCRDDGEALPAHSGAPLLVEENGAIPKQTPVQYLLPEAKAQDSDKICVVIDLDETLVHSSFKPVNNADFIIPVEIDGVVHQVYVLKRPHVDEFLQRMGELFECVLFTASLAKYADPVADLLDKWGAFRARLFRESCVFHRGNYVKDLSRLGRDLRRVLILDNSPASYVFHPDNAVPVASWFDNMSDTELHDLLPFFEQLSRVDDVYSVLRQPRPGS
# [2] = biological target: T2, High affinity choline transporter 1 (Homo sapiens, UniProt Q9GZV3); assay: CHT inhibitors, dose response, cell-based, 5-point CRC, membrane potential dye (AID 504840); assay type: functional
# T2 sequence (Q9GZV3 whole entry): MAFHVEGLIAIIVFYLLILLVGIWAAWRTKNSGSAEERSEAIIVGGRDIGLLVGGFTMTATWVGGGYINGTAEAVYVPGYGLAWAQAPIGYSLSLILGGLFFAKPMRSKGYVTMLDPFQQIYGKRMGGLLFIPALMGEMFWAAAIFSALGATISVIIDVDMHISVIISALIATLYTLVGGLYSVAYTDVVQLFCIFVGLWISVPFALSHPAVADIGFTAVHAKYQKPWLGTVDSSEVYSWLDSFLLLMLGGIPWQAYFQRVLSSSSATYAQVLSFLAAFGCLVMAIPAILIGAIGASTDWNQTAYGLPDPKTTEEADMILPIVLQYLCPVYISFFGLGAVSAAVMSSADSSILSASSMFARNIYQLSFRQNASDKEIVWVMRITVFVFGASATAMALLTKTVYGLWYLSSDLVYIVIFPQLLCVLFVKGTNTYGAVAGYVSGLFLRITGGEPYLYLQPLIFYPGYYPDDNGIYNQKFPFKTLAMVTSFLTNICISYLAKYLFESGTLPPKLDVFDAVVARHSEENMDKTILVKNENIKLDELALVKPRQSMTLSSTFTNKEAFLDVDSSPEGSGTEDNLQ
# [3] = biological target: T3, Heat shock factor protein 1 (Mus musculus, UniProt P38532); assay: HSF1 potentiators in luciferase reporter cells, confirmation, cell-based, NIH3T3, luminescence, dose retest (AID 435004); assay type: functional;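 also: stress induced by proteasome inhibitor MG132 added 30 min after compound; luciferase reporter driven by HSF1 response element in NIH3T3 cells; actives raise luminescence as potentiators of the MG132 stress response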
# T3 sequence (P38532 whole entry): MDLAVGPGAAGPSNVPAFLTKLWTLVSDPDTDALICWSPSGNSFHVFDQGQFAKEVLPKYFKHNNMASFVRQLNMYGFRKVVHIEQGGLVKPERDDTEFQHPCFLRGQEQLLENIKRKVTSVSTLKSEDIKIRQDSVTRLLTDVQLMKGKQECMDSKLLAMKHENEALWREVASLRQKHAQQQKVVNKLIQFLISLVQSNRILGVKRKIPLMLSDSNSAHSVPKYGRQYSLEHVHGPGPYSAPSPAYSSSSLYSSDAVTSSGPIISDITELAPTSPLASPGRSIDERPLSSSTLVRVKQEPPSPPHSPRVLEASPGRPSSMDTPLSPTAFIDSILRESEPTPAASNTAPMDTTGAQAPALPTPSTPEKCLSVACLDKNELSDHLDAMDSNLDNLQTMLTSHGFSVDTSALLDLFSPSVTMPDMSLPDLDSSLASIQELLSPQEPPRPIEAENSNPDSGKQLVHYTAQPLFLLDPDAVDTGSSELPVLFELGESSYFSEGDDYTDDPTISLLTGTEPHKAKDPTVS
# H9c2 = assay: cells; assay type: functional, cell-based; details: Rattus norvegicus, H9c2, Myocardium;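 also: confirmatory concentration-response retest of ultra-high-throughput screening hits for modulation of myocardial damage; cell death induced by hydrogen peroxide oxidative stress; compound pretreatment for 60 min then peroxide exposure for 2 h; potency is for protecting the cells against peroxide damage rather than for killing them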
# [4] = inhibitors of clade B AD8 Env fusion, dose response, cell-based, cherry-pick (AID 652062); assay type: functional;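 also: luciferase signal from cell-cell fusion driven by HIV-1 clade B AD8 Env; potency is for inhibitors of fusion seen as a drop in luminescence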
# [5] = Shn3 3'UTR reporter inhibitors, dose response, cell-based, Clone20 osteoblasts, firefly luciferase, cherry-picked (AID 624132); assay type: functional;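 also: firefly luciferase luminescence from reporter carrying the Shn3 3'UTR in osteoblasts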
# [6] = HepG2 cell cytotoxicity, dose response, cytotoxicity control for Shn3 inhibitor project, CellTiter-Glo, cherry-picked (AID 624134); assay type: functional, cell-based
# [7] = control 3'UTR Renilla luciferase suppression, dose response, counter-screen for Shn3 inhibitor project, cell-based, Clone20-Shn3RL, cherry-picked (AID 624133); assay type: functional
# Fatty acid synthase [8] = biological target: T4, Fatty acid synthase (Homo sapiens, UniProt P49327); assay: FAS thioesterase domain inhibitors, dose response, biochemical, endpoint fluorescence intensity, uHTS hits (AID 624327); assay type: functional;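 also: fluorescence from hydrolysis of an O-methyl fluorescein acyl ester substrate by the enzyme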
# T4 sequence (P49327 whole entry, the tested form may be a part): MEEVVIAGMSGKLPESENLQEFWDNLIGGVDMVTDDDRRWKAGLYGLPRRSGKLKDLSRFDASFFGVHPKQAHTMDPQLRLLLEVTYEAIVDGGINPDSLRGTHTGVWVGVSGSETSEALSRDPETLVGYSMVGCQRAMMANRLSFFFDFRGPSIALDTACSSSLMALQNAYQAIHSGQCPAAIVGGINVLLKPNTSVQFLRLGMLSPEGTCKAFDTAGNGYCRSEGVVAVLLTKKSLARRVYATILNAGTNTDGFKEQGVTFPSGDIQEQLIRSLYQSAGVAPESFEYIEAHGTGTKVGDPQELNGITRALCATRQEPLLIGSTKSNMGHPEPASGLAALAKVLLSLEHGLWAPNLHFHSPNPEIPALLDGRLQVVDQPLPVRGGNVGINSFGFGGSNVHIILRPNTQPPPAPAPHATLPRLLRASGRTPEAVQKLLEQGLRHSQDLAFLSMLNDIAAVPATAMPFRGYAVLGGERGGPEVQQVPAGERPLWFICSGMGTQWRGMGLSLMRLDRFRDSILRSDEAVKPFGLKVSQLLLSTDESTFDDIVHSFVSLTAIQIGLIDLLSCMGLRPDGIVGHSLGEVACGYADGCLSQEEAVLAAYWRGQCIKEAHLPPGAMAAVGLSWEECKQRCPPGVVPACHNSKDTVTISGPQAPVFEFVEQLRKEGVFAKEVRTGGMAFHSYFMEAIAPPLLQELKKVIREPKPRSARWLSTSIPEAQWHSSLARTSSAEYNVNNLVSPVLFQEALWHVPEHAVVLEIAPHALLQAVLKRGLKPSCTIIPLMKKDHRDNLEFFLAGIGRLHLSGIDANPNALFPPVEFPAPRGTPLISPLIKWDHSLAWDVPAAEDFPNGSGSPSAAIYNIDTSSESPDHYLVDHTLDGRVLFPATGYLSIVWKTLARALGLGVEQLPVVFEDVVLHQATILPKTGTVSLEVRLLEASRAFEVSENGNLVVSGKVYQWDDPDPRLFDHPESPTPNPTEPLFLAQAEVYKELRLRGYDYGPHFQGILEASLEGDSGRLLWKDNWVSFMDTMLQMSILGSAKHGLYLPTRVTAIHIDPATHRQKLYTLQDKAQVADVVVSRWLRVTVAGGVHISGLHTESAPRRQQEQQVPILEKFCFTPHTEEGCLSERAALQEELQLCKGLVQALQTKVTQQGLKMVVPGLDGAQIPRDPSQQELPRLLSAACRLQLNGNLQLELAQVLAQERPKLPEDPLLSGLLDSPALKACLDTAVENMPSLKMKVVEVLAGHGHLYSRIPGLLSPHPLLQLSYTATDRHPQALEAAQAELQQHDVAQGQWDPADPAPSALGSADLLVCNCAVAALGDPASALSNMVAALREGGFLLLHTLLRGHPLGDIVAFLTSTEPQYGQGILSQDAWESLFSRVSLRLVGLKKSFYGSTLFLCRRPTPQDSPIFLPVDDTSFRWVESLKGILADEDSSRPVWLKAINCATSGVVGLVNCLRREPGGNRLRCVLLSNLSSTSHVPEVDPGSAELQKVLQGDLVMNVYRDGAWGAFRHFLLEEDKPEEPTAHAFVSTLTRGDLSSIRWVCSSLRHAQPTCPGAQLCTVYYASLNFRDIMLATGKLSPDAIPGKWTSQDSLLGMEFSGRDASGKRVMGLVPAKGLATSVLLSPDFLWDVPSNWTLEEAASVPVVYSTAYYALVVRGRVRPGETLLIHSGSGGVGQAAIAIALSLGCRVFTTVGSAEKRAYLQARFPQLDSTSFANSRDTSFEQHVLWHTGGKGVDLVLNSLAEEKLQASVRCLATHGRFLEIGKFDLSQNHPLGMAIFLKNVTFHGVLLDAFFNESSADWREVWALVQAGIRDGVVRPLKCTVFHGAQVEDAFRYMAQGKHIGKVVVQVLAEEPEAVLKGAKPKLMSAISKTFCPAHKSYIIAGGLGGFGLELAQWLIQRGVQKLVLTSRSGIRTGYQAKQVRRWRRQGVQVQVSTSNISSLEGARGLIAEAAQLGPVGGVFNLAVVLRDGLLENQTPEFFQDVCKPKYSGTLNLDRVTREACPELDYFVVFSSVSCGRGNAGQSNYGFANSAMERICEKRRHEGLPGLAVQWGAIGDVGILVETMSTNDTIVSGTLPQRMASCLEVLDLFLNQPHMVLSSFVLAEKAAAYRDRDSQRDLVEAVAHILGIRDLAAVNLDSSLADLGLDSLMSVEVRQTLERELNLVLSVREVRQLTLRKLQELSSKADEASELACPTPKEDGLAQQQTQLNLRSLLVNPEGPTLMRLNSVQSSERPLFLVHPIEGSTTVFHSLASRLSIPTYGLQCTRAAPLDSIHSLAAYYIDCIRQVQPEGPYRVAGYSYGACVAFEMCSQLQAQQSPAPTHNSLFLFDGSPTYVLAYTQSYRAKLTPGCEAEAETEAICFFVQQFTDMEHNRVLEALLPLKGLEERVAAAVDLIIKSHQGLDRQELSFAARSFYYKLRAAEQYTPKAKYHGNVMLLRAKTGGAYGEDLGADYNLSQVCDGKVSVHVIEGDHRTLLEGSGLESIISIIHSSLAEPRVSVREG
# Fatty acid synthase [9] = biological target: T4, Fatty acid synthase; assay: FAS thioesterase domain inhibitors, dose response, biochemical, kinetic fluorescence intensity (AID 624326); assay type: functional;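 also: rate of fluorescence rise from hydrolysis of a fluorogenic O-methyl fluorescein ester substrate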
# H4 = assay: Luminescence Cell-Based Dose Response HTS to Identify Activators of 5'UTR Stem-Loop Driven Prion Protein mRNA Translation in H4 Neuroglioblastoma Cells. [Related pubchem assays: 1829 (Project Summary), 1814 (Primary HTS)]; assay type: functional; details: Homo sapiens
# [10] = biological target: T5, RNA-binding protein pos-1 (Caenorhabditis elegans, UniProt G5EF15); assay: inhibitors of POS-1/mex-3 RNA binding, dose response, biochemical, fluorescence polarization (AID 1964);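 also: purified POS-1 fused to maltose binding protein made in E. coli; potency of compounds blocking POS-1 binding to fluorescent RNA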
# T5 sequence (G5EF15 whole entry): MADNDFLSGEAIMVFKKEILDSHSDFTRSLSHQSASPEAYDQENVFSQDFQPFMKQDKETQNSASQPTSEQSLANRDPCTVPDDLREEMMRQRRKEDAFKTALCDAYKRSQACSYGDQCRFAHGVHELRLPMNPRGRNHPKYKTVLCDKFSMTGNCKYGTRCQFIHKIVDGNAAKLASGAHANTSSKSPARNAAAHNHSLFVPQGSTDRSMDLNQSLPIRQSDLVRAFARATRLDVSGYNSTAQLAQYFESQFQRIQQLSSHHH
# [11] = biological target: T6, Zinc finger protein mex-5 (Caenorhabditis elegans, UniProt Q9XUB2); assay: MEX-5/TCR-2 RNA interaction inhibitors, dose response, biochemical, C. elegans, fluorescence polarization (AID 1960)
# T6 sequence (Q9XUB2 whole entry): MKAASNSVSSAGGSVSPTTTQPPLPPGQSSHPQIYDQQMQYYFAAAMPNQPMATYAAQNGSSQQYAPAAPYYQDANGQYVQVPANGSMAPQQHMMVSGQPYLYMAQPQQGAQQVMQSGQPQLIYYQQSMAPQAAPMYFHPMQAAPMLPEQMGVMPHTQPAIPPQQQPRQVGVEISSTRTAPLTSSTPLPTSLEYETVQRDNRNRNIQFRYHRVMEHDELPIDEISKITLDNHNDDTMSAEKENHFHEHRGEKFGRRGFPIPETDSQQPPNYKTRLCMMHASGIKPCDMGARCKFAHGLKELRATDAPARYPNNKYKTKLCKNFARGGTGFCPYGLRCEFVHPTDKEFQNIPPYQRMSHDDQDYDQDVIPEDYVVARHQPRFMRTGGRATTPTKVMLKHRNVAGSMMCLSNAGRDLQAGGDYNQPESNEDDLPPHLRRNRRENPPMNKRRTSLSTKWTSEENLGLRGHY
# [12] = biological target: T7, Corticotropin-releasing factor receptor 2/Corticotropin-releasing factor-binding protein (Homo sapiens, UniProt P24387+Q13324); assay: activators of CRF receptor 2 with binding protein – uHTS hits, confirmation (AID 602473); assay type: functional; details: read-out: EC50_Mean
# T7 sequence (Q13324 whole entry): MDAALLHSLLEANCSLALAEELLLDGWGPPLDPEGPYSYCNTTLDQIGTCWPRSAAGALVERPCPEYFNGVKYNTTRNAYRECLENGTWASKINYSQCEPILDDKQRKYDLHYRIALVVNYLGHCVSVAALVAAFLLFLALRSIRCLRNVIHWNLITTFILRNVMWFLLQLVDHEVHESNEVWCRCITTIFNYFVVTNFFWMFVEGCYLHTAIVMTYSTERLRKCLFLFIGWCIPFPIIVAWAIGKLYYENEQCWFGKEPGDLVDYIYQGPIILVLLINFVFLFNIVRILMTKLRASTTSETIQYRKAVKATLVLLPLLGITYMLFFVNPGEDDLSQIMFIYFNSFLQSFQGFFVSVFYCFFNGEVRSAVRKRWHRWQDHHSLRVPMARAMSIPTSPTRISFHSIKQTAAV
# T7 sequence (P24387 whole entry): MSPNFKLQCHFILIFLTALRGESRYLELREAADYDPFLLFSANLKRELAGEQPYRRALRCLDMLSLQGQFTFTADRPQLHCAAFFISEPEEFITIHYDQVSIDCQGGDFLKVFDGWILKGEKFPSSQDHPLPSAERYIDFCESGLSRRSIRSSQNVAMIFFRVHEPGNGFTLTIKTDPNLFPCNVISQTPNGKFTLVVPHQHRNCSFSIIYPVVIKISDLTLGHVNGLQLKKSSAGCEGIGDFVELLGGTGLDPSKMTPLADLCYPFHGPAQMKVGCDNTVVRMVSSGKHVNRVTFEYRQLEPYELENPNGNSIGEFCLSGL
structure (smiles),measurement,setting,value
CCN1C(=O)[C@H]2[C@H]3CN=C(SCC4CC4)N3[C@@](Cc3ccccc3)(C(=O)OC)[C@H]2C1=O,IC50,[1],12.1 µM (active)
NC(=S)N/N=C1/CCSc2ccc3ccccc3c21,IC50,[2],6.48 µM (active)
CNc1nc(SC(C)C(=O)Nc2ccc(Cl)c(Cl)c2)nc(N2CCOCC2)n1 (stereo not drawn),EC50,[3],> 260 µM (inactive)
COc1cc2c(C(=O)NCc3ccccn3)cn(CC(C)C)c(=O)c2cc1OC,IC50,H9c2,> 79 µM (inactive)
Cc1ccc2c(C)c(C(=O)N3CCC(N4CCC(C(=O)NC5CC5)CC4)CC3)oc2c1,IC50,[2],14.5 µM (active)
COc1cccc(NC(=O)COC(=O)c2ccc(S(=O)(=O)NCc3ccco3)cc2)c1,IC50,[1],7.96 µM (active)
O=C(C[C@@H]1C[C@@H]2c3cc(NS(=O)(=O)c4ccc(F)cc4)ccc3O[C@@H]2[C@H](CO)O1)NCc1ccccc1F,AC50,[4],1.75 µM (active)
O=C(NCC(=O)N(Cc1cccs1)C(C(=O)NC1CCCCC1)c1ccco1)c1cccs1 (stereo not drawn),IC50,H9c2,8.09 µM (active)
COCCn1c(CN2CCN(c3cccc(Cl)c3)CC2)nc2c1c(=O)n(C)c(=O)n2C,IC50,[2],12.3 µM (active)
same,AC50,[5],10.7 µM (active)
same,AC50,[6],52.3 µM (active)
same,AC50,[7],11 µM (active)
Cn1c(NN)nc2c1c(=O)n(Cc1ccccc1)c(=O)n2C,IC50,[1],25.2 µM (active)
O=C(O)/C(=C/c1ccc(Cl)c([N+](=O)[O-])c1)c1ccc(S(=O)(=O)N2CCCCC2)s1,IC50,Fatty acid synthase [8],15.4 µM (active)
same,IC50,Fatty acid synthase [9],12.6 µM (active)
COc1ccc(-c2cc(C(F)F)n3ncc(C(=O)Nc4ccc(C(=O)N5CCOCC5)cc4)c3n2)cc1,IC50,H9c2,> 79 µM (inactive)
O=[N+]([O-])c1cccn2cc(-c3ccc(Br)cc3)nc12,EC50,H4,> 120 µM (not active)
same,IC50,[1],9.74 µM (active)
O=[N+]([O-])c1ccc(O)c(CSc2nnnn2-c2ccccc2)c1,IC50,[2],12 µM (active)
CC(C)(C)NC(=O)CC1C[C@H](C(=O)N2CCOCC2)[C@@]2(CCC3CCCC3)c3[nH]c4ccccc4c3CCN2C1=O (stereo partly drawn),IC50,Fatty acid synthase [8],2.31 µM (active)
same,IC50,Fatty acid synthase [9],4.15 µM (active)
COc1ccccc1OCCSc1nc(O)c2ccccc2n1,IC50,H9c2,14.4 µM (active)
Nc1c(C(=O)N/N=C/c2cccnc2)oc2nc(-c3ccccc3)cc(-c3ccco3)c12,EC50,[10],> 300 µM (not active)
same,EC50,[11],> 300 µM (not active)
same,IC50,H9c2,> 79 µM (inactive)
N#C/C(=N\Nc1cccc(Cl)c1)C(=O)c1ccccc1,IC50,[2],13.8 µM (active)
same,EC50,[12],> 53 µM (inactive)
O=C(COc1ccc([N+](=O)[O-])cc1)N1CCc2ccccc2C1,IC50,Fatty acid synthase [8],6.92 µM (active)
same,IC50,Fatty acid synthase [9],3.46 µM (active)
CNC(=O)c1cccc(NC(=O)c2cc(-c3ccccc3)nc3c2cnn3C(C)C)c1,IC50,H9c2,> 79 µM (inactive)
Cc1ccc(C(C)C)c(OCC(=O)NS(=O)(=O)c2ccc(Cl)cc2)c1,IC50,[2],11.8 µM (active)
O=C(Cn1cc(C(=O)C2CC2)c2ccccc21)NCc1ccc2c(c1)OCO2,IC50,Fatty acid synthase [8],14.3 µM (active)
same,IC50,Fatty acid synthase [9],8.36 µM (active)
COc1ccc(/C=C/C(=O)OCC(=O)NCc2ccco2)cc1OC,IC50,[1],14.5 µM (active)
O=[N+]([O-])c1cccc(NC(S)=NCCc2ccccc2)c1,IC50,Fatty acid synthase [8],10.1 µM (active)
same,IC50,Fatty acid synthase [9],9.04 µM (active)
CCOc1ccc2nc(COC(=O)c3cccc([N+](=O)[O-])c3)c(C(C)=O)[n+]([O-])c2c1,EC50,[3],> 260 µM (inactive)
Cc1cc(C)nc(N2N=C(CSc3ccc(Cl)cc3)CC2=O)n1,IC50,[2],15.1 µM (active)
COc1cccc(OC)c1C(=O)Nc1ccc(Br)c(C(=O)c2ccccc2)c1,IC50,H9c2,31.1 µM (inactive)
NCCCCCc1nnc(SCc2ccc(Cl)c(Cl)c2)o1,IC50,[2],13.2 µM (active)
Cn1c(=O)c(NC(=O)c2ccccc2)c2n(c1=S)CCCCC2,IC50,[1],14.3 µM (active)
COc1ccc([C@@H]2[C@@H]3C(=O)N(C(C)(C)C)C(=O)[C@@H]3[C@]3(Cc4ccccc4)C(=O)N(c4cccc(Br)c4)C(=O)N23)cc1,IC50,Fatty acid synthase [8],21.5 µM (inactive)
same,IC50,Fatty acid synthase [9],13.7 µM (active)
